Consider two molecules from patent US20020147237A1, “Preservation of bodily protein” (priority 2001, published 2002).

Data set [1] deals with anaesthetised piglet model. In words: blood gas and hemodynamic variables in anaesthetised piglets during i.v. infusion. Format: in vivo. To be noted: 60 min. On the procedure: (§1) Food was withheld from the animals for twelve hours prior to the experiment, but they had free access to water. […] In addition, all animals were given an intravenous bolus of morphine 1 mg·kg^-1 and, following tracheotomy, pancuronium bromide 0.3 mg·kg^-1. […] After the last measurements, still under anaesthesia, the animals were killed with an overdose of potassium chloride. After induction of anaesthesia the animals were tracheotomised and ventilated through an 8 mm endotracheal tube (Mallincrodt Laboratories, Athlone, Ireland) with a Servo ventilator […] ([…], Solna, Sweden). Ventilation was maintained at 25 breaths per minute with a positive end-expiratory pressure of 5 cm of H2O. […] The body temperature was kept stable by means of a thermostat controlled heating pad and warmed intravenous infusions. After skin incisions, a catheter was introduced in the left external jugular vein and advanced to the right hepatic vein under fluoroscopic control. Its position was confirmed by a contrast injection. The right external jugular vein was used for placement of a central venous catheter and a 7F pulmonary artery thermodilution catheter. An arterial catheter was inserted in a subclavian branch and advanced to a central position. Through a small suprapubic incision, a urinary catheter was placed in the bladder. A cutdown was made to place an ultrasonic flow probe (Transonic Systems Inc., Ithaca, N.Y., USA) around the femoral artery and to cannulate the femoral vein for blood sampling. Arterial blood gases were analysed on an ABL300/OSM3 system (Radiometer, Copenhagen, Denmark). […] The column eluate was mixed with ninhydrin reagent for amino acid detection. […] Blood glucose was analysed on a Reflolux® II (Boehringer Mannheim, Germany), using the glucose-oxidase/peroxidase reaction. Arterial and hepatic venous blood was drawn for calculations of splanchnic blood flow. […] The mean value of at least three measurements was adopted. Calculation of splanchnic blood flow was carried out according to the constant dye infusion technique (10). […] Splanchnic plasma flow was calculated according to a formula derived from Fick's principle: [formula] […] Femoral artery plasma flow was calculated as blood flow (1-EVF). The turnover of amino acids, ammonium and urea were calculated as plasma flow times the arterio-venous plasma concentration difference with negative values indicating release and positive values uptake. After anaesthesia and surgical preparation the piglets were allowed a stabilisation period of one hour and randomly assigned to either Group 1 or Group 2.

For data set [2], the system named is anaesthetised piglet model. Kind of data set: arterial plasma amino acid, NH4, urea and blood glucose concentrations in anaesthetised piglets. The class given is in vivo. The settings on record: for arterial glutamine level after 60 minutes (in words): after one hour of infusion of the single substance. Here is the method:
Food was withheld from the animals for twelve hours prior to the experiment, but they had free access to water. Anaesthesia was induced by an intramuscular injection of xylazine 2.2 mg·kg^-1, tiletamine 3 mg·kg^-1+zolazepam 3 mg·kg^-1 and atropine 0.04 mg·kg^-1. In addition, all animals were given an intravenous bolus of morphine 1 mg·kg^-1 and, following tracheotomy, pancuronium bromide 0.3 mg·kg^-1. […] After the last measurements, still under anaesthesia, the animals were killed with an overdose of potassium chloride. After induction of anaesthesia the animals were tracheotomised and ventilated through an 8 mm endotracheal tube (Mallincrodt Laboratories, Athlone, Ireland) with a Servo ventilator […] ([…], Solna, Sweden). Ventilation was maintained at 25 breaths per minute with a positive end-expiratory pressure of 5 cm of H2O. […] The body temperature was kept stable by means of a thermostat controlled heating pad and warmed intravenous infusions. After skin incisions, a catheter was introduced in the left external jugular vein and advanced to the right hepatic vein under fluoroscopic control. Its position was confirmed by a contrast injection. The right external jugular vein was used for placement of a central venous catheter and a 7F pulmonary artery thermodilution catheter. An arterial catheter was inserted in a subclavian branch and advanced to a central position. Through a small suprapubic incision, a urinary catheter was placed in the bladder. A cutdown was made to place an ultrasonic flow probe (Transonic Systems Inc., Ithaca, N.Y., USA) around the femoral artery and to cannulate the femoral vein for blood sampling. Arterial blood gases were analysed on an ABL300/OSM3 system (Radiometer, Copenhagen, Denmark). […] The column eluate was mixed with ninhydrin reagent for amino acid detection. […] Blood glucose was analysed on a Reflolux® II (Boehringer Mannheim, Germany), using the glucose-oxidase/peroxidase reaction. Arterial and hepatic venous blood was drawn for calculations of splanchnic blood flow. […] The mean value of at least three measurements was adopted. After anaesthesia and surgical preparation the piglets were allowed a stabilisation period of one hour and randomly assigned to either Group 1 or Group 2.

The next data set relates to splanchnic area. In words: splanchnic turnover (plasma flow times arterio-venous difference; negative = release, positive = uptake). The class given is in vivo, piglets. The settings on record: 60 min. On the procedure: as §1
The subject of a further data set is hind leg skeletal muscle. In words: hind leg turnover (plasma flow times arterio-venous difference; negative = release, positive = uptake). The class given is in vivo, piglets. To be noted: Group 1; 60 min; Dosage 1: NH4+ 12.3 μmol·kg^−1·min^−1 i.v. alone. Here is the method:
Food was withheld from the animals for twelve hours prior to the experiment, but they had free access to water. […] In addition, all animals were given an intravenous bolus of morphine 1 mg·kg^-1 and, following tracheotomy, pancuronium bromide 0.3 mg·kg^-1. […] After the last measurements, still under anaesthesia, the animals were killed with an overdose of potassium chloride. After induction of anaesthesia the animals were tracheotomised and ventilated through an 8 mm endotracheal tube (Mallincrodt Laboratories, Athlone, Ireland) with a Servo ventilator […] ([…], Solna, Sweden). […] The body temperature was kept stable by means of a thermostat controlled heating pad and warmed intravenous infusions. After skin incisions, a catheter was introduced in the left external jugular vein and advanced to the right hepatic vein under fluoroscopic control. Its position was confirmed by a contrast injection. The right external jugular vein was used for placement of a central venous catheter and a 7F pulmonary artery thermodilution catheter. An arterial catheter was inserted in a subclavian branch and advanced to a central position. Through a small suprapubic incision, a urinary catheter was placed in the bladder. A cutdown was made to place an ultrasonic flow probe (Transonic Systems Inc., Ithaca, N.Y., USA) around the femoral artery and to cannulate the femoral vein for blood sampling. Arterial blood gases were analysed on an ABL300/OSM3 system (Radiometer, Copenhagen, Denmark). […] The column eluate was mixed with ninhydrin reagent for amino acid detection. […] Blood glucose was analysed on a Reflolux® II (Boehringer Mannheim, Germany), using the glucose-oxidase/peroxidase reaction. Arterial and hepatic venous blood was drawn for calculations of splanchnic blood flow. […] The mean value of at least three measurements was adopted. […] Femoral artery plasma flow was calculated as blood flow (1-EVF). The turnover of amino acids, ammonium and urea were calculated as plasma flow times the arterio-venous plasma concentration difference with negative values indicating release and positive values uptake. After anaesthesia and surgical preparation the piglets were allowed a stabilisation period of one hour and randomly assigned to either Group 1 or Group 2.

The mark [3] stands for this setting: Group 1, Dosage 1: NH4+ 12.3 μmol·kg^−1·min^−1 i.v. alone.
The mark [4] stands for this setting: Group 1, 60 min, Dosage 1: NH4+ 12.3 μmol·kg^−1·min^−1 i.v. alone.
Setting [5] is: Group 2, Dosage 1: α-ketoglutarate 2.85 μmol·kg^−1·min^−1 i.v. alone.
Where [6] appears, read: Group 2, 60 min, Dosage 1: α-ketoglutarate 2.85 μmol·kg^−1·min^−1 i.v. alone.

Regarding `Cl.N` [NH4Cl, ammonium chloride], in data set [1] (setting [3]), the “Arterial pH” value is given as 7.43 ± 0.01 a, the C.O. was 138 ± 17 mL/min/kg, the Leg blood flow was determined as 4.7 ± 0.4 mL/min/kg and the PaCO2 was 5.18 ± 0.06 kPa. For the same molecule, in data set [1] (setting [3]), the Spl. blood flow was 43 ± 5 mL/min/kg. The molecule further had a Leg blood flow in data set [1] (Group 1, Dosage 1: NH4+ 12.3 μmol·kg^−1·min^−1 i.v. alone, listed as ammonium chloride) of 4.7 ± 0.4 a ml · min^−1 · kg^−1. Further, in data set [2] (setting [4]), the Glucose concentration came out at 5.5 ± 0.5 mmol/L, the “arterial Alanine concentration” value amounted to 412 ± 44 a μmol · L^−1, the “arterial Arginine concentration” value was found to be 80 ± 8 µmol/L and the “arterial Glutamate concentration” value came to 191 ± 20 µmol/L. Further, in data set [2] (setting [4]), the “arterial Glutamine concentration” value stood at 450 ± 26 a μmol · L^−1, the “arterial NH4^+ concentration” value came to 135 ± 14 a μmol · L^−1, the “arterial Total AA concentration” value was 3034 ± 139 µmol/L and the “arterial Urea concentration” value came to 3.4 ± 0.3 mmol/L. The “arterial glutamine level after 60 minutes (in words)” value in data set [2] is reported as “increased”. Moreover, in the data set with splanchnic area (setting [3]), the “Alanine turnover, splanchinc” value came out at 2.22 ± 0.28 µmol/min/kg; the “Arginine turnover, splanchinc” value was -0.23 ± 0.10 µmol/min/kg; the “FE (%)-NH4^+, splanchinc” value was 81 ± 4 a %; the “Glutamate turnover, splanchinc” value is -4.32 ± 0.28 µmol/min/kg. In the data set with splanchnic area (setting [3]), the “Glutamine turnover, splanchinc” value was 2.59 ± 0.56 µmol/min/kg; the “NH4^+ turnover, splanchinc” value is recorded as 3.09 ± 0.28 a μmol·min^−1·kg^−1; the “Total AA turnover, splanchinc” value came out at 3.93 ± 2.08 µmol/min/kg; the “Urea turnover, splanchinc” value was -3.2 ± 1.4 µmol/min/kg. For the same molecule, in the data set with hind leg skeletal muscle, the “Alanine turnover, hind leg” value is -0.13 ± 0.04 µmol/min/kg; the “Arginine turnover, hind leg” value was found to be 0.01 ± 0.005 µmol/min/kg; the “FE (%)-NH4^+, hind leg” value is recorded as 46 ± 3 a %; the “Glutamate turnover, hind leg” value worked out at 0.22 ± 0.03 µmol/min/kg. Also, in the data set with hind leg skeletal muscle, the “Glutamine turnover, hind leg” value is -0.09 ± 0.04 µmol/min/kg; the “NH4^+ turnover, hind leg” value was determined as 0.22 ± 0.03 a μmol·min^−1·kg^−1; the “Total AA turnover, hind leg” value worked out at 0.12 ± 0.23 µmol/min/kg; the “Urea turnover, hind leg” value is 0.2 ± 0.2 µmol/min/kg.

As for `O=C(O)CCC(=O)C(=O)O` [α-KGA, α-ketoglutaric acid], in data set [1] (setting [5]), the “Arterial pH” value is on record as 7.47 ± 0.01, the C.O. was found to be 144 ± 10 a ml · min^−1 kg^−1 and the PaCO2 stood at 5.27 ± 0.06 kPa. In data set [2] (setting [6]), the Glucose concentration amounted to 5.6 ± 0.4 mmol/L, the “arterial Alanine concentration” value was found to be 462 ± 34 µmol/L, the “arterial Arginine concentration” value was found to be 75 ± 5 µmol/L and the “arterial Glutamate concentration” value is 264 ± 32 µmol/L. For the same molecule, in data set [2] (setting [6]), the “arterial Glutamine concentration” value is given as 361 ± 24 z μmol · L^−1 and the “arterial Urea concentration” value came out at 2.7 ± 0.2 mmol/L. Further, the “drop of arterial glutamine concentration compared to the baseline level” value in data set [2] (Group 2, after one hour of α-KGA infusion alone) is given as 9±2%. In data set [2], the “arterial glutamine level after 60 minutes (in words)” value is listed as “decreased”. The “FE (%)-NH4^+, splanchinc” value with splanchnic area (setting [5]) is recorded as 28 ± 10%.
